In the supplement of paper PMC11061612:

Tests used:
Assay in all cases: combination Emax (second highest fraction inhibited in the dose matrix, 72 h); higher = more inhibition; extreme values may be limits of the assay
[1] = tested on: PL4 (Pancreatic Carcinoma)
In short: (§1)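 After 24 hours at 37°C and 5% CO2 in 1536-well plates, cells in DMEM/F12 or RPMI plus 10% FBS received two-drug dose matrices for 72 hours. Viability came from CellTiter-Glo 2.0 luminescence and was scaled as inhibition, anchored at 0 by vehicle wells and at 1 by blank wells. Combination Emax is taken as the second-highest inhibition in the matrix, and Bliss excess as the observed combination effect less EA + EB − EA·EB, with EA and EB the single-agent effects.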

[2] = tested on: BxPC-3 (Pancreatic Carcinoma)
In short: as §1

[3] = tested on: COR-L88 (Small Cell Lung Carcinoma)
In short: as §1

ES6 (Ewing's Sarcoma) = tested on: ES6 (Ewing's Sarcoma)
In short: as §1

[4] = tested on: SUP-M2 (T-Cell Non-Hodgkin's Lymphoma)
In short: as §1

GAK (Melanoma) = tested on: GAK (Melanoma)
In short: as §1

[5] = tested on: IA-LM (Non-Small Cell Lung Carcinoma)
In short: as §1

[6] = tested on: SiHa (Cervical Carcinoma)
In short: as §1

[7] = tested on: SK-CO-1 (Colorectal Carcinoma)
In short: as §1

[8] = tested on: SNU-423 (Hepatocellular Carcinoma)
In short: as §1

[9] = tested on: BHT-101 (Thyroid Gland Carcinoma)
In short: as §1

[10] = tested on: P32-ISH (Burkitt's Lymphoma)
In short: as §1

NCI-H2373 (Mesothelioma) = tested on: NCI-H2373 (Mesothelioma)
In short: as §1

[11] = tested on: OVCAR-3 (Ovarian Carcinoma)
In short: as §1

SMILES | combination Emax [1] | combination Emax [2] | combination Emax [3] | combination Emax (ES6 (Ewing's Sarcoma)) | combination Emax [4] | combination Emax (GAK (Melanoma)) | combination Emax [5] | combination Emax [6] | combination Emax [7] | combination Emax [8] | combination Emax [9] | combination Emax [10] | combination Emax (NCI-H2373 (Mesothelioma)) | combination Emax [11]
CN(C)CCCOc1ccc(-c2ccc3ncc4c(c3c2)n(C2CCOCC2)c(=O)n4C)cn1 [AZD0156] + C=CCn1c(=O)c2cnc(Nc3ccc(N4CCN(C)CC4)cc3)nc2n1-c1cccc(C(C)(C)O)n1 [AZD1775] (first compound max 1 µM, partner max 1 µM) | 0.445 | 0.457 | 0.622 | 0.306 | 1 | 0.745 | 0.231 | 0.143 | 0.562 | 0.506 | 0.423 | 0.995 | 0.408 | 0.32
CN(C)CCCOc1ccc(-c2ccc3ncc4c(c3c2)n(C2CCOCC2)c(=O)n4C)cn1 [AZD0156] + CCN(CCO)CCCOc1ccc2c(Nc3cc(CC(=O)Nc4cccc(F)c4)[nH]n3)ncnc2c1 [AZD2811] (first compound max 1 µM, 7x7, partner max 1 µM) | 0.256 | 0.101 | 0.127 | 0.176 | 0.94 | 0.198 | 0.0974 | 0.135 | 0.798 | 0.194 | 0.203 | 0.962 | 0.354 | 0.105
CN(C)CCCOc1ccc(-c2ccc3ncc4c(c3c2)n(C2CCOCC2)c(=O)n4C)cn1 [AZD0156] + C[C@@H]1COCCN1C2=NC(=NC(=C2)C3(CC3)[S@](=N)(=O)C)C4=C5C=CNC5=NC=C4 [AZD6738] (first compound max 1 µM, 7x7, partner max 10 µM) | 0.718 | 0.475 | 0.8 | 0.557 | 0.985 | 0.703 | 0.304 | 0.234 | 0.721 | 0.495 | 0.627 | 0.951 | 0.588 | 0.271
C=CCn1c(=O)c2cnc(Nc3ccc(N4CCN(C)CC4)cc3)nc2n1-c1cccc(C(C)(C)O)n1 [AZD1775] + C[C@@H]1COCCN1C2=NC(=NC(=C2)C3(CC3)[S@](=N)(=O)C)C4=C5C=CNC5=NC=C4 [AZD6738] (first compound max 1 µM, partner max 10 µM) | 0.738 | 0.624 | 0.822 | 0.652 | 1 | 0.821 | 0.446 | 0.371 | 0.738 | 0.747 | 0.771 | 1 | 0.608 | 0.74
C=CCn1c(=O)c2cnc(Nc3ccc(N4CCN(C)CC4)cc3)nc2n1-c1cccc(C(C)(C)O)n1 [AZD1775] + O=C(c1cc(Cc2n[nH]c(=O)c3ccccc23)ccc1F)N1CCN(C(=O)C2CC2)CC1 [Olaparib] (first compound max 1 µM, partner max 10 µM) | 0.494 | 0.511 | 0.594 | 0.444 | 0.993 | 0.804 | 0.252 | 0.199 | 0.662 | 0.731 | 0.406 | 0.997 | 0.354 | 0.532
CCN(CCO)CCCOc1ccc2c(Nc3cc(CC(=O)Nc4cccc(F)c4)[nH]n3)ncnc2c1 [AZD2811] + C=CCn1c(=O)c2cnc(Nc3ccc(N4CCN(C)CC4)cc3)nc2n1-c1cccc(C(C)(C)O)n1 [AZD1775] (first compound max 1 µM, partner max 1 µM) | 0.554 | 0.449 | 0.64 | 0.285 | 1 | 0.682 | 0.166 | 0.164 | 0.674 | 0.59 | 0.318 | 1 | 0.408 | 0.262
CCN(CCO)CCCOc1ccc2c(Nc3cc(CC(=O)Nc4cccc(F)c4)[nH]n3)ncnc2c1 [AZD2811] + C[C@@H]1COCCN1C2=NC(=NC(=C2)C3(CC3)[S@](=N)(=O)C)C4=C5C=CNC5=NC=C4 [AZD6738] (first compound max 1 µM, 7x7, partner max 10 µM) | 0.657 | 0.447 | 0.615 | 0.6 | 0.999 | 0.564 | 0.304 | 0.225 | 0.7 | 0.473 | 0.555 | 0.992 | 0.534 | 0.221
CCN(CCO)CCCOc1ccc2c(Nc3cc(CC(=O)Nc4cccc(F)c4)[nH]n3)ncnc2c1 [AZD2811] + O=C(c1cc(Cc2n[nH]c(=O)c3ccccc23)ccc1F)N1CCN(C(=O)C2CC2)CC1 [Olaparib] (first compound max 1 µM, 7x7, partner max 10 µM) | 0.269 | 0.244 | 0.295 | 0.249 | 0.975 | 0.295 | 0.222 | 0.173 | 0.615 | 0.264 | 0.201 | 0.946 | 0.206 | 0.147
CN(CCO)CC[C@H](CSc1ccccc1)Nc1ccc(S(=O)(=O)NC(=O)c2ccc(N3CCC([C@@H](O)c4ccccc4-c4ccc(Cl)cc4)CC3)cc2)cc1S(=O)(=O)C(F)(F)F [AZD4320] + C1CN(CCC1(C(=O)N[C@@H](CCO)C2=CC=C(C=C2)Cl)N)C3=NC=NC4=C3C=CN4 [Capivasertib] (first compound max 1 µM, 7x7, partner max 3 µM) | 0.497 | 0.0788 | 0.971 | 0.291 | 0.365 | 0.135 | 0.376 | 0.171 | 0.659 | 0.406 | 0.351 | 0.318 | 0.409 | 0.147
CN(CCO)CC[C@H](CSc1ccccc1)Nc1ccc(S(=O)(=O)NC(=O)c2ccc(N3CCC([C@@H](O)c4ccccc4-c4ccc(Cl)cc4)CC3)cc2)cc1S(=O)(=O)C(F)(F)F [AZD4320] + C=CCn1c(=O)c2cnc(Nc3ccc(N4CCN(C)CC4)cc3)nc2n1-c1cccc(C(C)(C)O)n1 [AZD1775] (first compound max 1 µM, partner max 1 µM) | 0.708 | 0.776 | 0.978 | 0.572 | 1 | 0.833 | 0.462 | 0.112 | 0.867 | 0.804 | 0.659 | 0.994 | 0.404 | 0.828
CN(CCO)CC[C@H](CSc1ccccc1)Nc1ccc(S(=O)(=O)NC(=O)c2ccc(N3CCC([C@@H](O)c4ccccc4-c4ccc(Cl)cc4)CC3)cc2)cc1S(=O)(=O)C(F)(F)F [AZD4320] + CCN(CCO)CCCOc1ccc2c(Nc3cc(CC(=O)Nc4cccc(F)c4)[nH]n3)ncnc2c1 [AZD2811] (first compound max 1 µM, 7x7, partner max 1 µM) | 0.544 | 0.236 | 0.974 | 0.161 | 0.979 | 0.257 | 0.505 | 0.162 | 0.889 | 0.466 | 0.279 | 0.915 | 0.125 | 0.234
CN(CCO)CC[C@H](CSc1ccccc1)Nc1ccc(S(=O)(=O)NC(=O)c2ccc(N3CCC([C@@H](O)c4ccccc4-c4ccc(Cl)cc4)CC3)cc2)cc1S(=O)(=O)C(F)(F)F [AZD4320] + CN(C)CCCOc1ccc(-c2ccc3ncc4c(c3c2)n(C2CCOCC2)c(=O)n4C)cn1 [AZD0156] (first compound max 1 µM, 7x7, partner max 1 µM) | 0.462 | 0.0513 | 0.957 | 0.188 | 0.388 | 0.209 | 0.432 | 0.108 | 0.712 | 0.515 | 0.394 | 0.17 | 0.191 | 0.132
COc1nnc2ccc(N3CCC(c4ccc(OCCN5CCN(C)C(=O)[C@H]5C)cc4)CC3)nn12 [AZD5153] + CN(CC[C@H](CSC1=CC=CC=C1)NC2=C(C=C(C=C2)S(=O)(=O)NC(=O)C3=CC=C(C=C3)N4CCC(CC4)[C@H](C5=CC=CC=C5C6=CC=C(C=C6)Cl)O)S(=O)(=O)C(F)(F)F)CCO [AZD4320] (first compound max 1 µM, 7x7, partner max 1 µM) | 0.809 | – | – | – | 0.986 | – | – | 0.527 | – | – | 0.737 | 0.68 | 0.511 | 0.601
CC(=O)c1c(C)c2cnc(Nc3ccc(N4CCNCC4)cn3)nc2n(C2CCCC2)c1=O [Palbociclib] + CN(CC[C@H](CSC1=CC=CC=C1)NC2=C(C=C(C=C2)S(=O)(=O)NC(=O)C3=CC=C(C=C3)N4CCC(CC4)[C@H](C5=CC=CC=C5C6=CC=C(C=C6)Cl)O)S(=O)(=O)C(F)(F)F)CCO [AZD4320] (first compound max 10 µM, 7x7, partner max 1 µM) | 0.483 | – | – | – | 0.897 | – | – | 0.104 | – | – | 0.598 | 0.735 | 0.223 | 0.204
CCc1c2c(nc3ccc(O)cc13)-c1cc3c(c(=O)n1C2)COC(=O)[C@]3(O)CC [SN-38] + O=C(c1cc(Cc2n[nH]c(=O)c3ccccc23)ccc1F)N1CCN(C(=O)C2CC2)CC1 [Olaparib] (first compound max 0.3 µM, 7x7, partner max 10 µM) | 0.903 | 0.59 | 0.535 | 0.618 | 1 | 0.472 | 0.878 | 0.32 | 0.798 | 0.495 | – | 1 | 0.801 | 0.687
C[C@@H](c1ccc2nccn2c1)n1nnc2ncc(-c3cnn(C)c3)nc21 [Savolitinib] + CN(CC[C@H](CSC1=CC=CC=C1)NC2=C(C=C(C=C2)S(=O)(=O)NC(=O)C3=CC=C(C=C3)N4CCC(CC4)[C@H](C5=CC=CC=C5C6=CC=C(C=C6)Cl)O)S(=O)(=O)C(F)(F)F)CCO [AZD4320] (first compound max 1 µM, 7x7, partner max 1 µM) | 0.472 | – | – | – | 0.287 | – | – | 0.224 | – | – | 0.176 | 0.165 | 0.0896 | 0.131
